# Results as given in patent US4570005A, “Process for the preparation of 2-arylpropyl ether or thioether derivatives” (priority 1980, dated 1986).
# Where two headings read alike, the source gives them in different places.
# Legend:
# [1] = Test 9: Toxicity Test (acute oral toxicity, mice); conditions: mouse, in vivo, po
# Procedure: A predetermined amount of a solution or suspension of a test compound in corn oil was orally administered to male mice having a body weight of 19 to 23 g (0.2 ml per 10 g of the body weight). After 7 days, the number of killed mice was counted and the influences on the mice were examined.
# [2] = system: sensitive green rice leafhopper (collected at Chigasaki); assay: whole plant or invertebrate; assay type: in vivo; conditions: Nephotettix cincticeps, sensitive female adults, 24 hours, read-out: Mortality (%), Green Rice Leafhopper Collected at Chigasaki
# Procedure: (§1) To a mixture of 20 parts of the compound of the present invention and 20 parts of Sorpol SM-200 (registered tradename for the product supplied by Toho Chemical Industrial Co., Ltd.) was added 60 parts of xylol, and the mixture was suffciently blended. The obtained emulsifiable concentrate was diluted at a predetermined concentration with distilled water, and the obtained dilution was used.
# (§2) Seedlings (having 2 to 3 leaves) of paddy rice were hydroponically cultured in a pot having a diameter of 5 cm. A chemical dilution having a concentration of 100 or 20 ppm, prepared in the same manner as described in Test 1, was applied with a sprayer at a rate of 3 ml per pot. The treated seedlings were air-dried and covered with a metal net cylinder, and female adults of resistant green rice leafhopper (collected at Nakagawara) and sensitive green rice leafhopper (collected at Chigasaki) were set, respectively, free in the pot at a density of 10 adults per pot. After 24 hours, the numbers of killed and living adults were counted and the mortality was calculated. The test was made on three pots and the average value was calculated.
# [3] = system: resistant green rice leafhopper (collected at Nakagawara); assay: Test 3: Effect on Resistant Green Rice Leafhopper (collected at Nakagawara); assay type: in vivo, Nephotettix cincticeps Uhler (Green rice leafhopper); conditions: Nephotettix cincticeps, 24 h, read-out: Mortality (%), Green Rice Leafhopper Collected at Nakagawara
# Procedure: as §1, §2
# tobacco cutworm [4] = assay: Test 1: Effect on Tobacco Cutworm (leaf immersion), mortality after 24 hours; assay type: in vivo; conditions: second-instar larvae, 25° C
# Procedure: as §1
# An emulsifiable concentrate of a test compound prepared according to the method described in Formulation Example 1 was diluted to a concentration of 100 or 20 ppm. Sweet-potato leaves were immersed in the dilution for 10 seconds, air-dried and placed in a plastic cup having a diameter of 10 cm. Then second-instar larvae of tobacco cutworm were set free in the cup. The cup was allowed to stand still in a thermostat chamber maintained at 25° C. After 24 hours, the numbers of killed and living larvae were counted and the mortality was calculated. The obtained result was expressed by an average value obtained from the mortality calculated in three test cups.
# diamond back moth = assay: Test 4: Effect on Diamond Back Moth; assay type: in vivo; conditions: Plutella
# Procedure: as §1
# Cabbage leaves were spread in a plastic cup, and 10 third-instar larvae of diamond back moth were set free in the cup.
# A chemical dilution having a concentration of 100 or 20 ppm, prepared in the same manner as described in Test 1, was applied from an applicator at a rate of 3 ml per cup.
# After scattering of the chemical dilution, the cup was covered, and after 24 hours, the numbers of killed and living larvae were counted and the mortality was calculated. The test was made on three cups and the average value was calculated.
# tobacco cutworm [5] = assay: Test 2: Tobacco Cutworm Larva Dipping Test, mortality after 24 hours; assay type: in vivo
# Procedure: as §1
# A dilution having a chemical concentration of 100 or 20 ppm was prepared in the same manner as described in Test 1.
# Second-instar and fifth-instar larvae of tobacco cutworm were dipped in the dilution for 5 seconds, and the excessive dilution was removed by a filter paper. Then, the larvae were set free in a plastic cup and an artificial diet was supplied thereto. The cup was allowed to stand still in a thermostat chamber maintained at 25° C. After 24 hours, the numbers of the killed and living larvae were counted and the mortality was calculated. The test was made on three cups and the result was expressed by an average value.
# [6] = 20 ppm, third-instar larvae, 24 hours, read-out: Mortality (%)
# [7] = 100 ppm, third-instar larvae, 24 hours, read-out: Mortality (%)
# [8] = 24 h, read-out: Motality (%), Fifth-Instar Larvae
SMILES,LD50 at 168 h [1] [mg/kg],mortality at 20 ppm [2] [%],mortality at 100 ppm [2] [%],mortality at 20 ppm [3] [%],mortality at 100 ppm [3] [%],mortality at 20 ppm (tobacco cutworm [4]) [%],mortality at 100 ppm (tobacco cutworm [4]) [%],mortality at 20 ppm (diamond back moth; [6]) [%],mortality at 100 ppm (diamond back moth; [7]) [%],other results
"CC(C)(COCc1cccc(Oc2ccccc2)c1)c1ccc(OCCCl)cc1 [Compound 108, 3-Phenoxybenzyl 2-[4-(2-chloroethoxy)phenyl]-2-methylpropyl ether]",> 500,95,100,100,100,100,100,–,–,–
"CCOc1ccc(Oc2cccc(COCC(C)(C)c3ccc(OCC)cc3)c2)cc1 [Compound 101, 3-(4-Ethoxyphenoxy)benzyl 2-(4-ethoxyphenyl)-2-methylpropyl ether]",> 500,100,100,100,100,100,100,100,100,"mortality at 20 ppm (tobacco cutworm [5]; 20 ppm, fifth-instar larvae, 24 hours, read-out: Motality (%), Fifth-Instar Larvae): 100%; mortality at 20 ppm (tobacco cutworm [5]; 20 ppm, second-instar larvae, 24 hours, read-out: Motality (%), Second-Instar Larvae): 100%; mortality at 100 ppm (tobacco cutworm [5]; 100 ppm, fifth-instar larvae, 24 hours, read-out: Motality (%), Fifth-Instar Larvae): 100%; mortality at 100 ppm (tobacco cutworm [5]; 100 ppm, second-instar larvae, 24 hours, read-out: Motality (%), Second-Instar Larvae): 100%"
"CCOc1ccc(C(C)(C)COCc2cccc(Oc3ccccc3)c2)cc1OC [Compound 99, 3-Phenoxybenzyl-2-(4-ethoxy-3-methoxyphenyl)-2-methylpropyl ether]",> 500,–,–,–,–,100,100,80,100,–
"Cc1ccc2cc(C(C)(C)COCc3cccc(Oc4ccccc4)c3)ccc2c1 [Compound 71, 3-Phenoxybenzyl 2-(6-methyl-2-naphthyl)-2-methylpropyl ether]",> 500,100,100,100,100,–,–,60,100,–
"CC(C)(COCc1cccc(Oc2ccc(F)cc2)c1)c1ccc(F)c(Cl)c1 [Compound 58, 3-(4-Fluorophenoxy)benzyl 2-(3-chloro-4-fluorophenyl)-2-methylpropyl ether]",> 500,100,100,100,100,100,100,–,–,–
"CNC(=O)ON=C(C)SC [Comparative Compound (f), S-methyl N-(methylcarbamoyloxy)thioacetoamidate, reference compound]",28,–,–,–,–,–,–,–,–,"mortality at 20 ppm (diamond back moth; 24 h): 0%; mortality at 100 ppm (diamond back moth; 24 h): 10%; mortality at 20 ppm (tobacco cutworm [5]; [8]): 0%; mortality at 100 ppm (tobacco cutworm [5]; [8]): 80%; mortality at 20 ppm (tobacco cutworm [5]; 24 h, read-out: Motality (%), Second-Instar Larvae): 30%"
"CCC(C)Oc1ccc(C(C)(C)COCc2cccc(Oc3ccccc3)c2)cc1 (centres unmarked) [Compound 70, 3-Phenoxybenzyl 2-[4-(sec-butoxy)phenyl]-2-methylpropyl ether]",> 500,100,100,100,100,90,100,–,–,–
"CCOC(C)c1ccc(C(C)(C)COCc2cccc(Oc3ccccc3)c2)cc1 (centres unmarked) [Compound 84, 3-Phenoxybenzyl 2-[4-(1-ethoxyethyl)phenyl]-2-methylpropyl ether]",> 500,–,–,–,–,–,–,60,100,–
"CCOc1ccc(C(C)(C)COCc2cccc(Oc3ccc(Br)cc3)c2)cc1 [Compound 66, 3-(4-Bromophenoxy)benzyl 2-(4-ethoxyphenyl)-2-methylpropyl ether]",> 500,100,100,100,100,100,100,60,100,–
"CCOCOc1ccc(C(C)(C)COCc2cccc(Oc3ccccc3)c2)cc1 [Compound 81, 3-Phenoxybenzyl 2-(4-ethoxymethoxyphenyl)-2-methylpropyl ether]",> 500,–,–,–,–,90,100,–,–,–
"CC(=O)c1ccc(C(C)(C)COCc2cccc(Oc3ccccc3)c2)cc1 [Compound 60, 3-Phenoxybenzyl 2-(4-acetylphenyl)-2-methylpropyl ether]",> 500,60,100,90,100,80,100,–,–,–
"CCOc1c(C)cc(C(C)(C)COCc2cccc(Oc3ccccc3)c2)cc1C [Compound 97, 3-Phenoxybenzyl 2-(4-ethoxy-3,5-dimethylphenyl)-2-methylpropyl ether]",> 500,100,100,100,100,100,100,–,–,–
"CC(C)(COCc1cccc(Oc2ccccc2)c1)c1ccc(Oc2ccccc2)cc1 [Compound 76, 3-Phenoxybenzyl 2-(4-phenoxyphenyl)-2-methylpropyl ether]",> 500,–,–,–,–,90,100,–,–,–
CC(C)(COCc1cccc(Oc2ccccc2)c1)c1ccc(F)c(Cl)c1 [Compound 75],> 500,–,–,–,–,80,100,–,–,–
"CCSc1ccc(C(C)(C)COCc2cccc(Oc3ccccc3)c2)cc1 [Compound 100, 3-Phenoxybenzyl 2-(4-ethylthiophenyl)-2-methylpropyl ether]",> 500,80,100,95,100,80,100,–,–,–
"COCOc1ccc(C(C)(C)COCc2cccc(Oc3ccccc3)c2)cc1 [Compound 83, 3-Phenoxybenzyl 2-(4-methoxymethoxyphenyl)-2-methylpropyl ether]",> 500,–,–,–,–,100,100,–,–,–
"CC(C)(COCc1cccc(Oc2ccccc2)c1)c1ccc(OC(Cl)=C(Cl)Cl)cc1 [Compound 92, 3-Phenoxybenzyl 2-[(1,2,2-trichlorovinyloxy)phenyl]-2-methylpropyl ether]",> 500,–,–,–,–,90,100,–,–,–
"CC(C)(COCc1cccc(Oc2ccccc2)c1)c1ccc(C#N)cc1 [Compound 54, 3-Phenoxybenzyl 2-(4-cyanophenyl)-2-methylpropyl ether]",> 500,–,–,–,–,100,100,–,–,–
"CCOc1ccc(Oc2cccc(COCC(C)(C)c3ccc(Cl)cc3)c2)cc1 [Compound 94, 3-(4-Ethoxyphenoxy)benzyl 2-(4-chlorophenyl)-2-methylpropyl ether]",> 500,100,100,100,100,100,100,80,100,–
"CCOC(=O)c1ccc(C(C)(C)COCc2cccc(Oc3ccccc3)c2)cc1 [Compound 85, 3-Phenoxybenzyl 2-(4-ethoxycarbonylphenyl)-2-methylpropyl ether]",> 500,100,100,100,100,80,100,–,–,–
